Results on one compound are retold here after patent publication US11896678B2, “Compositions and methods for treatment of peroxisome proliferator-activated receptor gamma (PPARG) activated cancer” (THE BROAD INSTITUTE, INC., priority 2017, dated 2024).

In one assay the test system is UM-UC-9 cells. In words: Direct cell counting dose-response proliferation assay. The format is cell-based, human. The protocol:
To determine whether PPARG modulators affect the proliferation and/or viability of PPARG-activated bladder cancer cell lines, a direct cell counting-based assay was performed. This assay likely avoids potential artifacts associated with the use of an ATP content-based assay, given that PPAR modulators are known to regulate cellular metabolic activity. […] These IC50 values align well with the calculated IC50s from both the cell-based reporter gene assay (FIG. 8A) and the biochemical corepressor assay (FIG. 8D).
Proliferation Assays: To enable cell-counting experiments, cell lines were transduced with a lentiviral vector encoding nuclear-targeted GFP, TagGFP2-H2B (Evrogen), and stable pools generated following selection for puromycin resistance. Cell lines were maintained for at least 7 days following selection prior to expansion and seeding into 96- or 384-well plates for further analysis. For kinetic proliferation assays, 96-well plates (n 1% 4 per condition) were imaged and counted every two hours using IncuCyte Zoom (Essen BioScience). Media and compounds were replaced approximately every 3-4 days. For endpoint assays to measure dose-response, cells were plated in 384-well plates, dosed with compound, and upon reaching approximately 70% to 90% confluence in control wells, cells were either counted using fluorescence imaging (Incu-Cyte Zoom) or incubated with CyQuant (Thermo Fisher) at the indicated time and plates were read with a fluorescent plate reader.

Assay [1] has as its target T1, PPARG ligand-binding domain - TRAP220/MED1 coactivator peptide (Homo sapiens, UniProt P37231).
T1 construct: purchased ThermoFisher Scientific
T1 sequence (P37231 238-503 limits assumed): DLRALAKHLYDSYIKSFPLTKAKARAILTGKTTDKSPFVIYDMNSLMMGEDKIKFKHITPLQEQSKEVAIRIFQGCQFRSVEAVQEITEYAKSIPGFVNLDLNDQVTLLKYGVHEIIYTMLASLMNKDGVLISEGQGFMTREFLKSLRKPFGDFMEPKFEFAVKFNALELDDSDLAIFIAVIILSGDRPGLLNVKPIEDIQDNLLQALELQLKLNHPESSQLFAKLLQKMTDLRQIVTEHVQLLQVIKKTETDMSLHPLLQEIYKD
Briefly: TR-FRET coactivator assay, TRAP220/MED1 peptide. The class given is biochemical.

`O=C(Nc1ccccc1)c1cc([N+](=O)[O-])ccc1Cl` [GW9662]: the “effect on cell proliferation compared with DMSO control” value in the assay with UM-UC-9 cells is on record as “no significant effects”. The “effect in coactivator assay” value in assay [1] was “minimal effect”.
